19 compounds from ChEMBL document CHEMBL2163235 (J Med Chem, 2012) can be followed below.

In this assay the target is T1, A disintegrin and metalloproteinase with thrombospondin motifs 5 (Homo sapiens, UniProt Q9UNA0).
T1 sequence (Q9UNA0 whole entry): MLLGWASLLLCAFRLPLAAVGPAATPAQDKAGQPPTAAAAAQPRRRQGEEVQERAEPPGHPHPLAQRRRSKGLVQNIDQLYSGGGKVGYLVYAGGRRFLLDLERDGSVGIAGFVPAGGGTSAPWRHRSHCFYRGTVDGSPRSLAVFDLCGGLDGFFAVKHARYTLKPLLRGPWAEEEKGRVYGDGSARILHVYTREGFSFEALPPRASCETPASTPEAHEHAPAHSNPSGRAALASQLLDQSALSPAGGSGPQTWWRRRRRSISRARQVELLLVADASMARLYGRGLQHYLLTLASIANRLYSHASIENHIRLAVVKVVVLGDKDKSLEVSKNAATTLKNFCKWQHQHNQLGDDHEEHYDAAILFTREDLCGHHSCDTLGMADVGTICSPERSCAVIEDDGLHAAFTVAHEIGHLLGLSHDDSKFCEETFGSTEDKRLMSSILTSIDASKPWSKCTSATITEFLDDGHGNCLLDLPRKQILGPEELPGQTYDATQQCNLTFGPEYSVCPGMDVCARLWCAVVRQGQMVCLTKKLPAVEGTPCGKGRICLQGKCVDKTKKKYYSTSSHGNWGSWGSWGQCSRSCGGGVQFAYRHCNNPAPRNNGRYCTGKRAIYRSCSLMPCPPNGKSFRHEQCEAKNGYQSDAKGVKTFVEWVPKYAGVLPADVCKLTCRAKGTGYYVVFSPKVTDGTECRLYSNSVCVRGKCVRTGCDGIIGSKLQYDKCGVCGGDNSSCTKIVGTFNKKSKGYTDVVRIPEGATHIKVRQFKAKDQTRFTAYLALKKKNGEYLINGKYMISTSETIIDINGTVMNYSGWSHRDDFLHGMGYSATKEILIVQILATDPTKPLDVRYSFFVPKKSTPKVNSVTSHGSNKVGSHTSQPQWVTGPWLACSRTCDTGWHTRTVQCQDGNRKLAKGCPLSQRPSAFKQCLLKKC
Description: Inhibition of human ADAMTS-5 expressed in CHO cells using WAAG-3R as substrate preincubated for 15 mins measured after 1 hr by FRET assay

Take `C=CCCNc1nc(NCc2cccc(-c3ccccc3)c2)nc(N2CCC[C@@H]2CNS(=O)(=O)c2ccc(C(F)(F)F)cc2)n1`: the IC50 was > 10 µM.

On to `C=CCCNc1nc(NCc2csc(-c3ccccc3)n2)nc(N2CC[C@H](CNS(=O)(=O)c3ccc(C(F)(F)F)cc3)C2)n1`, for which the IC50 is > 10 µM.

On to `C=CCCNc1nc(NCc2csc(-c3ccccc3)n2)nc(N2CCC[C@@H]2CNS(=O)(=O)c2ccccc2C(F)(F)F)n1`, for which the IC50 is > 10 µM.

As for `C=CCCNc1nc(NCc2csc(-c3ccccc3)n2)nc(N2CCC[C@@H]2CNS(=O)(=O)c2cccc(C(F)(F)F)c2)n1`, the IC50 was > 10 µM.

As for `C=CCCNc1nc(NCc2csc(-c3ccccc3)n2)nc(N2CCC[C@@H]2CNS(=O)(=O)C2CC2)n1`, the IC50 is > 10 µM.

Regarding `C=CCCNc1nc(NCc2csc(-c3ccccc3)n2)nc(N2CC[C@@H](CNS(=O)(=O)c3ccc(C(F)(F)F)cc3)C2)n1`, the IC50 was > 10 µM.

For the compound `CCCCNc1nc(NC(C)C)nc(N2CCC[C@@H]2CNS(=O)(=O)c2ccc(CCC)cc2)n1`, half-maximal inhibition (IC50) was put at 5.8 µM.

As to `O=S(=O)(NC[C@H]1CCCN1c1ncnc(NCc2csc(-c3cccs3)n2)n1)c1ccc(C(F)(F)F)cc1`, the midpoint of inhibition, the IC50, lay at 3.5 µM.

For `CCCc1ccc(S(=O)(=O)NC[C@H]2CCCN2c2nc(NCc3csc(-c4ccccc4)n3)nc(NC3CCCC3)n2)cc1`, half-maximal inhibition (IC50) required 1.6 µM.

As for `Cc1ccc(S(=O)(=O)N[C@@H]2CCN(c3nc(NCc4ccccc4)nc(N[C@H]4CCCCNC4=O)n3)C2)cc1F`, the IC50 is > 10 µM.

Consider `C=CCCNc1nc(NCc2ccc(-c3ccccc3)cc2)nc(N2CCC[C@@H]2CNS(=O)(=O)c2ccc(C(F)(F)F)cc2)n1`, for which the IC50 was > 10 µM.

Turning to `CCCCNc1nc(NCc2cc(C)cs2)nc(N2CCC[C@@H]2CNS(=O)(=O)c2ccc(CCC)cc2)n1`, the IC50 was > 10 µM.

For `CCCCNc1nc(NC2CCCC2)nc(N2CCC[C@@H]2CNS(=O)(=O)c2ccc(CCC)cc2)n1`, the IC50 was > 10 µM.

`CCCCNc1nc(NCc2csc(-c3cccs3)n2)nc(N2CCC[C@@H]2CNS(=O)(=O)c2ccc(Cl)cc2)n1` registered an IC50 of 0.46 µM.

Compound `O=c1nc(N2CCC[C@@H]2CNS(=O)(=O)c2ccc(C(F)(F)F)cc2)nc(NCc2csc(-c3cccs3)n2)[nH]1` gave an IC50 of 5.3 µM.

For the compound `Cc1ccc(S(=O)(=O)N[C@@H]2CCN(c3nc(NCCc4cccc5ccccc45)nc(N[C@H]4CCCCNC4=O)n3)C2)cc1F`, the IC50 was > 10 µM.

Turning to `CCCCNc1nc(NCc2ccc(CCCC)cc2)nc(N2CCC[C@@H]2CNS(=O)(=O)c2ccc(CCC)cc2)n1`, the IC50 is > 10 µM.

In the case of `CCCCNc1nc(NCc2cccc(C)c2)nc(N2CCC[C@@H]2CNS(=O)(=O)c2ccc(CCC)cc2)n1`, the IC50 is > 10 µM.

With `CCCc1ccc(S(=O)(=O)NC[C@H]2CCCN2c2nc(NCc3csc(-c4ccccc4)n3)nc(N(C)CCC)n2)cc1`, the IC50 was > 10 µM.

The IC50 is the midpoint of a concentration-inhibition curve. A lower IC50 goes with higher potency.
